What was measured:
EGLN1 = target: T1, EGLN1 (Homo sapiens, UniProt Q9GZT9); experiment: HIF1 protein levels in BCAT1 knockdown cells treated with cobalt chloride; format: cell-based; settings: BCAT1 knockdown cells (HL-60), cobalt chloride given to inhibit EGLN1 activity, FIG. 4g
T1 construct: endogenous in cells; host or cells: HL-60 AML cells transduced with shBCAT1 (BCAT1 knockdown)
Description: To gain additional mechanistic insight into cellular pathways affected by BCAT1, we utilized the HL-60 AML cell line. […] Western blot analysis confirmed HIF1 as downstream target of BCAT1 (FIG. 4e), and decreased HIF1 levels were due to enhanced protein degradation since the relative amount of hydroxylated Proline564 was increased after BCAT1 knockdown (FIG. 4f), as intracellular αKG is a co-factor of EGLN1 activity^14. […] Finally, lentiviral overexpression of HIF1 as well as shRNA-mediated knockdown of EGLN1 was sufficient to rescue the proliferation and survival defect after BCAT1-KD (FIG. 4h, i). Together, these analyses place BCAT1 upstream of HIF1 mediating its effect via the αKG-dependent activation of EGLN1. […] Knockdown of HIF1 is sufficient to abrogate LSC function^16.

[1] = test system: AML cells with long-term BCAT1-overexpression; experiment: Sensitivity of long-term BCAT1-overexpressing AML cells to daunorubicin; format: cell-based; settings: FIG. 5i
Description: AML patient survival is usually associated with sensitivity to standard chemotherapy^23,24. […] Along these lines, BCAT1 expression was consistently higher (on average 6.6-fold) in the relapse versus the paired diagnostic sample (FIG. 5j).

T1 sequence (Q9GZT9 whole entry): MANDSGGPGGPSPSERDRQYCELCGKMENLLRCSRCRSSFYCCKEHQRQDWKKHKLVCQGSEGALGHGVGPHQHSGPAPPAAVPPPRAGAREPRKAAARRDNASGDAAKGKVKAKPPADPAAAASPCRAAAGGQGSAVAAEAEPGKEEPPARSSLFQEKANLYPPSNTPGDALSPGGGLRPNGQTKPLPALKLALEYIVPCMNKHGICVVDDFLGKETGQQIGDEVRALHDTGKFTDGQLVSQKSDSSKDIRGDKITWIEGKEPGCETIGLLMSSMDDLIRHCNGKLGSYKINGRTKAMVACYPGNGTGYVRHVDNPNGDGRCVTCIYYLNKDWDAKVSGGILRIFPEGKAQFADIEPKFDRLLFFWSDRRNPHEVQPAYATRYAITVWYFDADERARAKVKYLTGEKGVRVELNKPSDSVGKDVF

Compound: [Cl][Co][Cl] [cobalt chloride]
- HIF1 protein levels (EGLN1): attenuated decrease of HIF1 protein levels

Compound: COc1cccc2c1C(=O)c1c(O)c3c(c(O)c1C2=O)C[C@@](O)(C(C)=O)C[C@@H]3O[C@H]1C[C@H](N)[C@H](O)[C@H](C)O1 [daunorubicin]
- resistance to daunorubicin [1]: increased resistance

Reference: patent US11591658B2, “Methods for sub-typing and treating cancer” (HI-STEM gGmbH, priority 2017, dated 2023)
